Marks after values point to notes of the source that are not given here.
Columns and labels:
ovine COX-1 = molecular target: T1, ovine COX-1 (Ovis aries, UniProt P05979); experiment: In vitro COX inhibitor screening assay (EIA kit, Cayman), COX-1; type: biochemical; conditions: mean of two determinations, enzyme kit, read-out: COX1 IC50
T1 construct: purchased Cayman Chemical, Ann Arbor, MI, USA 560131
T1 sequence (P05979 25-600): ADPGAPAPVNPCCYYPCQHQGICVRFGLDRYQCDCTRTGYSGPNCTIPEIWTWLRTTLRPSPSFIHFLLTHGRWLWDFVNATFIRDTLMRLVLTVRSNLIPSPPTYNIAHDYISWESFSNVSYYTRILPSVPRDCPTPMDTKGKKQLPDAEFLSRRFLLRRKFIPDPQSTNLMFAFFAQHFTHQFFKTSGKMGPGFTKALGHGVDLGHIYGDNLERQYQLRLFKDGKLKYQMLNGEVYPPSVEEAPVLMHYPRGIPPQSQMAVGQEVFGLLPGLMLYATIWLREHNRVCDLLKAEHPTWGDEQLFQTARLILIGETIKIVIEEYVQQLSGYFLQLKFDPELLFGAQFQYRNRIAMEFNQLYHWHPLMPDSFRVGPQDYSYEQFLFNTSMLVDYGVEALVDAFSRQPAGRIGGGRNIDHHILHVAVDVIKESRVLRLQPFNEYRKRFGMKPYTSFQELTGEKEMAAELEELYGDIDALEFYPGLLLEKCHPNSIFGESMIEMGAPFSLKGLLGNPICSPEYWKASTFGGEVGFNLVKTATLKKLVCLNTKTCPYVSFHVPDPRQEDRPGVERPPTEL
Procedure: (§1) Furthermore, the selectivity index for COX-2 (COX-1 IC50 / COX-2 IC50) was calculated for the compounds.

[1] = test system: carrageenan-induced paw edema in rats; experiment: Carrageenan-induced paw edema (anti-inflammatory activity); type: in vivo; conditions: 10 mg/kg oral; for % Change in Paw Height (Mean ± SEM): n = 5
Procedure: Albino rats (150–180 g) were used. The rats were divided into 11 experimental groups of five rats each. One hour after oral administration of the compounds (10 mg/kg), 0.1 mL of 1% carrageenan solution was injected in the left hind paw of each animal. Rat paw volumes were measured with a digital caliber plethysmometer (UGO Basile, Varese, Italy) used to measure inflammation height at 0, 1, 2, and 3 h after carrageenan injection. The percentage increase in inflammation in the left hind paw, in comparison to the uninjected right hind paw, was determined, calculated, and expressed as the amount of inflammation. […] The anti-inflammatory activity of the selected analgesic compounds after 3 h was expressed as percentage inhibition of edema, which was calculated according to the following equation: (2) Inhibition of edema (%) =Vcont−Vtest/Vcont×100* where V cont is the edema volume in the control group, and V test is the edema volume in the group of the screened compound.

human recombinant COX-2 = molecular target: T2, human recombinant COX-2 (Homo sapiens, UniProt P35354); experiment: In vitro COX inhibitor screening assay (EIA kit, Cayman), COX-2; type: biochemical; conditions: for COX2 (SI) selectivity index: COX-1 IC50 / COX-2 IC50; for IC50: COX-2, mean of two determinations, enzyme kit, read-out: COX2 IC50
T2 construct: purchased Cayman Chemical, Ann Arbor, MI, USA 560131
T2 sequence (P35354 18-604): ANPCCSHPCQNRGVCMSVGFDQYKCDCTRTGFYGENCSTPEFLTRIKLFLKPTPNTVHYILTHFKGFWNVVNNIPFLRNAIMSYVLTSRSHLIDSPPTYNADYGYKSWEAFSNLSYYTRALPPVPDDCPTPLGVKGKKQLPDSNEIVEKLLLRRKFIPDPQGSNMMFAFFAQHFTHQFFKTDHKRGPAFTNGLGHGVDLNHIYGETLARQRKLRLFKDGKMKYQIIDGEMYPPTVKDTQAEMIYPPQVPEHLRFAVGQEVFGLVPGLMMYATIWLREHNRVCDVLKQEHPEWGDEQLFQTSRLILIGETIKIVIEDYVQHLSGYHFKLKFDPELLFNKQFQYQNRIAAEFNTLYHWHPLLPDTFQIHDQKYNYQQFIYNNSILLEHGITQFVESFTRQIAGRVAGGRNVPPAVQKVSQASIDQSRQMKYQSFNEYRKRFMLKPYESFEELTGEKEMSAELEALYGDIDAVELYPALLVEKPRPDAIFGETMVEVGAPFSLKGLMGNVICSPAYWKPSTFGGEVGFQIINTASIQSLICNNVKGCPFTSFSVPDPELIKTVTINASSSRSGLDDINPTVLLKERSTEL
Procedure: as §1

[2] = test system: acetic acid-induced writhing in mice; experiment: Acetic acid-induced writhing test (analgesic activity); type: in vivo; conditions: 10 mg/kg p.o.; for Writhing Number in 20 min (Mean ± SEM): acetic acid 1 h after dosing; for Analgesic Activity (% protection): writhing test
Procedure: The analgesic activity of the compounds was performed using the writhing test as described by Gawade et al.. Mice weight ranged from 25 to 30 g. Then, mice were divided into 18 different groups, each containing five animals. The animals fasted for 8 h before the experiment. Administration of the compounds (10 mg/kg, p.o.) was performed orally. Equal doses of diclofenac as the reference drug and saline as a negative control were also administrated orally. Writhing was induced one hour after compound administration by using 0.1 mL of 1% glacial acetic acid at a volume of 0.1 mL/10 g body weight. The number of writhing responses (stretching of the abdomen, extension of hind limbs, twisting of the trunk, and elongation of the body) observed was counted for 20 min. The protection percentile against acetic acid-induced writhing was calculated according to the following formula: (1) Analgesic activity (%) =n−n′/n×100* where n is the mean number of writhes of the control group, and n’ is the mean number of writhes of the tested compound group.

SMILES	IC50 (ovine COX-1)	melting point	% Change in Paw Height (Mean ± SEM) ([1]; 1 hr after carrageenan)	% Change in Paw Height (Mean ± SEM) ([1]; 2 hr after carrageenan)	Anti-Inflammatory Activity (% Inhibition of Edema) ([1]; 3 hr after carrageenan)	% Change in Paw Height (Mean ± SEM) ([1]; 3 hr after carrageenan)	COX2 (SI) selectivity index (human recombinant COX-2)	IC50 (human recombinant COX-2)	Writhing Number in 20 min (Mean ± SEM) ([2]; n = 5)	Analgesic Activity (% protection) ([2]; n = 5)	Analgesic Activity (% protection) ([2]; n = 5, 10 mg/kg)	Analgesic Activity (% protection) ([2]; n = 5, listed as sodium diclofenac, 10 mg/kg)
COc1c2ccoc2cc2oc(C(=O)Nc3cc(=O)[nH]c(SCC(=O)O)n3)c(C)c12 [Compound 6a, 2-((4-(4-methoxy-3-methylbenzo [1,2-b: 5,4-b`]difuran-2-carboxamido)-6-oxo-1,6-dihydropyrimidin-2-yl)thio) acetic acid]	17.5 µM	278 to 280 °C	0.39 ± 0.01 ^a %	0.32 ± 0.02 ^a %	35%	0.41 ± 0.02 ^a %	51	0.345 µM	50 ± 1.6 ^a,b	25 ± 0.50%		
COc1c2occc2c(OC)c2c(C)c(C(=O)Nc3cc(=O)[nH]c(SCC(=O)O)n3)oc12 [Compound 6b, 2-((4-(4,8-dimethoxy-3-methylbenzo [1,2-b: 5,4-b`]difuran-2-carboxamido)-6-oxo-1,6-dihydropyrimidin-2-yl)thio) acetic acid]	17.1 µM	293 to 295 °C	0.38 ± 0.03 ^a %	0.31 ± 0.04 ^a %	38%	0.39 ± 0.01 ^a %	55	0.311 µM	49 ± 1.2 ^a,b	26 ± 0.80%		
O=C(O)Cc1ccccc1Nc1c(Cl)cccc1Cl [Diclofenac, reference compound]				0.13 ± 0.02 ^a %	63%	0.20 ± 0.01 ^a %			25 ± 1.2 ^a		51 ± 1.15 ^a %	51%
COc1c(C(C)=O)c(OCC(=O)Nc2cc(=O)[nH]c(=S)[nH]2)c(OC)c2occc12 [Compound 4b, 2-((5-acetyl-4,7-dimethoxybenzofuran-6-yl)oxy)-N-(6-oxo-2-thioxo-1,2,3,6-tetrahydropyrimidin-4-yl) acetamide]	18.5 µM	186 to 188 °C	0.47 ± 0.04 ^a %	0.38 ± 0.03 ^a %	26%	0.47 ± 0.01 ^a %	45	0.411 µM	56 ± 1.2 ^a,b	19 ± 1.30%		
COc1c(C(C)=O)c(OCC(=O)Nc2cc(=O)[nH]c(=S)[nH]2)cc2occc12 [Compound 4a, 2-((5-acetyl-4-methoxybenzofuran-6-yl)oxy)-N-(6-oxo-2-thioxo-1,2,3,6-tetrahydropyrimidin-4-yl) acetamide]	18.8 µM	170 to 172 °C		0.40 ± 0.02 ^a %		0.49 ± 0.02 ^a %	41	0.46 µM		18 ± 1.20%		
COc1c2ccoc2cc2oc(C(=O)Nc3cc(=O)[nH]c(=S)[nH]3)c(C)c12 [Compound 5a, 4-methoxy-3-methyl-N-(6-oxo-2-thioxo-1,2,3,6-tetrahydropyrimidin-4-yl) benzo [1,2-b: 5,4-b`] difuran-2-carboxamide]	18.1 µM	245 to 247 °C	0.45 ± 0.03 ^a %	0.36 ± 0.02 ^a %	28%	0.46 ± 0.02 ^a %	48	0.375 µM	54 ± 1.6 ^a,b	21 ± 2.10%		
COc1c2occc2c(OC)c2c(C)c(C(Cl)=Nc3cc(Cl)nc(=S)[nH]3)oc12 [Compound 8b, N-(6-chloro-2-thioxo-2,3-dihydropyrimidin-4-yl)-4,8-dimethoxy-3-methylbenzo [1,2-b: 5,4-b`] difuran-2-carbimidoyl chloride]	15.5 µM	347 to 349 °C	0.36 ± 0.01 ^a %	0.29 ± 0.02 ^a %	42%	0.35 ± 0.02 ^a %	63	0.245 µM	47 ± 2.2 ^a,b	28 ± 0.95%		
COc1c2occc2c(OC)c2c(C)c(C(=O)Nc3cc(=O)n4c(n3)SCC4=O)oc12 [Compound 7b, N-(3,5-dioxo-2,3-dihydro-5H-thiazolo[3,2-a]pyrimidin-7-yl)-4,8-dimethoxy-3-methylbenzo [1,2-b:5,4-b`]difuran-2-carboxamide]	7.18 µM	327 to 329 °C	0.30 ± 0.02 ^a %	0.25 ± 0.01 ^a %	52%	0.29 ± 0.01 ^a %	80	0.09 µM		35 ± 1.14%		
COc1c2ccoc2cc2oc(C(=O)Nc3cc(=O)n4c(n3)SCC4=O)c(C)c12 [Compound 7a, N-(3,5-dioxo-2,3-dihydro-5H-thiazolo [3,2-a]pyrimidin-7-yl)-4-methoxy-3-methylbenzo [1,2-b: 5,4-b`] difuran-2-carboxamide]	7.95 µM	308 to 310 °C	0.31 ± 0.01 ^a %	0.26 ± 0.02 ^a %	50%	0.30 ± 0.02 ^a %	79	0.101 µM	42 ± 1.8 ^a,b	33 ± 1.70%		

Reference: paper PMC6982876, “Synthesis of Novel Benzodifuranyl; 1,3,5-Triazines; 1,3,5-Oxadiazepines; and Thiazolopyrimidines Derived from Visnaginone and Khellinone as Anti-Inflammatory and Analgesic Agents” (Molecules, 2020)
